In one test the target is T1, recombinant 5-Lox (Homo sapiens, UniProt P09917).
T1 sequence (P09917 1-674): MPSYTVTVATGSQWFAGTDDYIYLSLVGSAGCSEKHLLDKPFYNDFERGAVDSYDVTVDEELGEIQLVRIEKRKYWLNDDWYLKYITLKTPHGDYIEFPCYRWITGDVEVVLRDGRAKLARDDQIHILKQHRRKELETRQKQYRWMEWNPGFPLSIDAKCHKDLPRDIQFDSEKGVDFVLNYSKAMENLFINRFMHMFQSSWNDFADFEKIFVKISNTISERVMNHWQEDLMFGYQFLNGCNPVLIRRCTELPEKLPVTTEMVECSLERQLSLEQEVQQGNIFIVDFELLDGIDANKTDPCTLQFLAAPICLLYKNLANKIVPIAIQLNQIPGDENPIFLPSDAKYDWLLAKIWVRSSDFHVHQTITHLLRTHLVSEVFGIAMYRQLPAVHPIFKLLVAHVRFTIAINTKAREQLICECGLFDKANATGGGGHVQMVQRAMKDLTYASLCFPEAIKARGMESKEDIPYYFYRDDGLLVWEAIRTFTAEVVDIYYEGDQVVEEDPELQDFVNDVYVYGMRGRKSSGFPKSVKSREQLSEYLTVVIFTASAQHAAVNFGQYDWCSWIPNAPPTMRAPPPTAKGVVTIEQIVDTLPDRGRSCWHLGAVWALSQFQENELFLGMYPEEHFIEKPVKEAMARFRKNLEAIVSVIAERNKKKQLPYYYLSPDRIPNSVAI
Briefly: Assay for 5-Lipoxygenase Activity. In kind it is biochemical. The conditions noted are these: arachidonic acid, absorbance at 236 nm (AUC), range stated for the group of compounds tested, read-out: 5-1, poxygenase inhibition IC50. The method, then: Assay for 5-Lipoxygenase Activity
In a 96 well UV-plate, 100 μl of phosphate buffer saline (PBS) containing DTT (200 μM), ATP (100 μM) and calcium chloride (100 μM) was added. To each well 0.5 μl of test drug (200 times concentrated) or vehicle was added, followed by 4 μl of recombinant 5-Lox (3 units/μl) and was incubated at 37° C. for 5 min. The reaction was initiated by adding 1 μl of 1 mM freshly prepared arachidonic acid and increase in absorbance was monitored at 236 nm for 10 min. (J Biol. Chem. 261:11512, 1986) A plot of absorbance verses time curve was prepared and area under curve (AUC) was computed for each well. Percent inhibition of AUC for different treatments was calculated with respect to the difference between the Arachidonic acid stimulated and negative control values, to compute IC50 values.

A further test concerns LTB4 release. Briefly: A23187 Induced LTB4 Release. In kind it is cell-based. To be noted: Neutrophil; neutrophils from healthy human donors, 1 hour with test drug, 0.3 μg/ml A23187 for 10 min, LTB4 ELISA; range stated for the group of compounds tested; read-out: A123187 induced LTB4 release IC50. As for the experimental part:
The compounds of the present invention are tested in one or both of the assays described herein. Standard assays are used to evaluate activity of compounds in present invention on inflammatory cells. Attenuation of agonist-induced release of lipid mediator of neutrophil chemotaxis, leukotriene B4 (LTB4), is used to evaluate Inhibitory effect on neutrophils.
Venous blood was collected from healthy human donors using heparin as an anti-coagulant. Neutrophils were isolated from freshly drawn blood after dextran sedimentation and ficoll separation (Eur J Biochem. 169, 175, 1987), 180 μl of the of neutrophil suspension (0.2×10^6 cells/ml) was taken and added 19 μL of Hank's Buffer salt solution along with 1 μL of the test drug (200 times concentrated) in a 24 well plate and incubated at 37° C. for 1 hour, 3 minutes before the end of test compound incubation, 0.25 mM Ca^++/Mg^++ were added. Then, 0.3 μg/ml A23187 (Sigma Chem, USA) was added and incubated for further 10 min at 37° C. The reaction was stopped by adding 80 μL of cold methanol and centrifuged to remove cell debris (J Pharmacol Exp Ther. 297:267, 2001). The samples were analysed for LTB4 release using LTB4ELISA kits (Assay Design Inc., USA). The amount of LTB4 released was quantified and percent inhibition of LTB4 release was calculated with respect to the difference between the A23187 stimulated and negative control cells, to compute IC50 values.
For orientation: In an ELISA, binding on a coated surface is turned into a signal by an enzyme label.

For orientation: IC50 means the concentration at which inhibition is half-maximal. On to `CC1(C)OCC(C2OC3OC(C)(C)OC3C2NC(=S)Nc2ccc(F)cc2)O1` [Compound No. 55, 1,2;5,6-Di-O-isopropylidene-3-deoxy-3-{[(4-fluorophenyl)-amino]thiocarbonyl}-amino-α-D-allofuranoside], for which, at recombinant 5-Lox, the IC50 was in the range of 0.3 to 10 µM.

For the compound `CC1(C)O[C@H]2O[C@H]([C@H]3COC(C)(C)O3)[C@@H](NC(=S)Nc3ccc(Cl)c(Cl)c3)[C@H]2O1` [Compound No. 60, 1,2;5,6-Di-O-isopropylidene-3-deoxy-3-{[(3,4-dichlorophenyl)-amino]thiocarbonyl}-amino-α-D-allofuranoside], at recombinant 5-Lox, the IC50 lay within 0.3 to 10 µM.

Regarding `CC1(C)OCC(C2OC3OC(C)(C)OC3C2NC(=S)Nc2ccc(OCc3ccccc3)cc2)O1` [Compound No. 63, 1,2;5,6-Di-O-isopropylidene-3-deoxy-3-{[(4-benzyloxyphenyl)amino]thiocarbonyl}-amino-α-D-allofuranoside], at recombinant 5-Lox, the IC50 is 0.3 to 10 µM.

`CC1(C)O[C@H]2O[C@H]([C@H]3COC(C)(C)O3)[C@@H](NC(=S)Nc3ccccc3[N+](=O)[O-])[C@H]2O1` [Compound No. 67, 1,2;5,6-Di-O-isopropylidene-3-deoxy-3-{[(2-nitrophenyl)-amino]thiocarbonyl}-amino-α-D-allofuranoside]: the IC50 on recombinant 5-Lox is 0.3 to 10 µM.

Turning to `CC1(C)OCC(C2OC3OC(C)(C)OC3C2NC(=S)Nc2ccc(C#N)cc2)O1` [Compound No. 68, 1,2;5,6-Di-O-isopropylidene-3-deoxy-3-{[(4-cyanophenyl)-amino]thiocarbonyl}-amino-α-D-allofuranoside], at recombinant 5-Lox, the IC50 lay in the range of 0.3 to 10 µM.

As for `CC1(C)OCC(C2OC3OC(C)(C)OC3C2NC(=O)Cc2ccccc2C(F)(F)F)O1` [Compound No. 80, 1,2;5,6-Di-O-isopropylidene-3-deoxy-3-{[(2-trifluoromethylphenyl)-methyl]carbonyl}-amino-α-D-allofuranoside], the IC50 in the test on LTB4 release fell in the range of 0.13 to 30 µM; on recombinant 5-Lox, 0.3 to 10 µM.

On to `CC1(C)OCC(C2OC3OC(C)(C)OC3C2NC(=O)Cc2cccc(Cl)c2)O1` [Compound No. 84, 1,2;5,6-Di-O-isopropylidene-3-deoxy-3-{[(3-chlorophenyl)-methyl]carbonyl}-amino-α-D-allofuranoside], for which the IC50 in the test with LTB4 release was in the range of 0.13 to 30 µM; on recombinant 5-Lox it was 0.3 to 10 µM.

For the compound `CC1(C)OCC(C2OC3OC(C)(C)OC3C2NC(=O)Cc2ccc(Cl)c(Cl)c2)O1` [Compound No. 100, 1,2;5,6-Di-O-isopropylidene-3-deoxy-3-{[(3,4-dichlorophenyl)-methyl]carbonyl}-amino-α-D-allofuranoside], the figures for the IC50 in the test on LTB4 release and on recombinant 5-Lox were 0.13 to 30 µM and 0.3 to 10 µM, respectively.

Take `CC1(C)OCC(C2OC3OC(C)(C)OC3C2NC(=S)Nc2ccc(F)cc2)O1` [Compound No. 101, 1,2;5,6-Di-O-isopropylidene-3-deoxy-3-{[(4-fluorophenyl)-amino]thiocarbonyl}-amino-α-D-glucofuranoside]: in the test on LTB4 release, the half-maximal inhibitory concentration (IC50) was 0.13 to 30 µM.

With `CC1(C)OCC(C2OC3OC(C)(C)OC3C2NC(=S)Nc2ccccc2F)O1` [Compound No. 103, 1,2;5,6-Di-O-isopropylidene-3-deoxy-3-{[(2-fluorophenyl)-amino]thiocarbonyl}-amino-α-D-glucofuranoside], the IC50 in the test on LTB4 release was 0.13 to 30 µM; at recombinant 5-Lox, 0.3 to 10 µM.

The values above are taken from patent publication US20080114031A1, “MONOSACCHARIDE DERIVATIVES” (priority 2006, published 2008).
